According to patent publication US10557115B2, “Medium containing uridine and N-acetyl-D-mannosamine” (JCR Pharmaceuticals Co., Ltd., priority 2015, dated 2020):

Key:
[1] = tested on: CHO cells for expression of recombinant human erythropoietin; experiment: Capillary electrophoresis isoform analysis of recombinant human erythropoietin from cells cultured in supplemented medium; type: cell-based, Chinese hamster; settings: basic medium added with 8 mM N-acetyl-D-mannosamine and/or 3 mM uridine, 5 days at 37° C., FIG. 3; for ratio of type I isoform to sum of all detected isoforms of recombinant human erythropoietin: type I = lowest isoelectric point
Experimental: (§1) The above master cells stored in liquid nitrogen were quickly thawed in 37° C. thermostatic bath, and suspended in a basic medium, the CD Opti CHO™ medium (Life Technologies Inc.) supplemented with 2 mM of GlutaMAX (Life Technologies Inc.) and 1×HT Supplement (Life Technologies Inc.). Then, the cells were precipitated by centrifugation and corrected. The corrected cells were suspended with the basic medium to obtain the cell suspension, and the number of the living cells was counted. The cell suspension was diluted to the living cell density of 2×10^5 cells/mL with the basic medium.
The cell suspension was dispensed into culture vessels by 120 mL each to generate four groups and incubated for five days at 37° C. under 5% CO2. This incubation was conducted by using Bio Jr.8 (100 mL×8 vessels culture device, AbleBiott Inc.), and pH of the medium was kept at 6.9 and the dissolved oxygen level (DO) was kept at 40% during the incubation. At this time, uridine and N-acetyl-D-mannosamine were added at the concentration as shown in Table 1 to each of the groups (group 1 to group 4). The incubation was conducted four times for each of the groups.
On the fifth day of the incubation above, 10 mL of each of the cultures was corrected to centrifuging tubes and centrifuged at 3,000 rpm for 10 minutes. Then, the culture supernatants were corrected and diluted 1.5 times with purified water. Then, 7.5 mL of each of these diluted culture supernatants was loaded on Capto™ adhere column, a multi-modal anion exchange resin (column volume: 1 mL, GE Healthcare Bioscience Inc.) pre-equilibrated with 20 mM Tris buffer (pH 7.5). After washing the column with 5 column volumes of 20 mM Tris buffer (pH 7.5), recombinant human erythropoietin adsorbed by the resin was eluted with 20 mM Tris buffer (pH 7.5) containing 200 mM of NaCl to obtain eluted fractions. And the eluted fractions were concentrated by Amicon Ultra-4 Centrifugal Filter Units (molecular weight cut off: 3 kDa, Millipore Inc.) to 100 μL of volume.
The concentrated solution of each of the groups was subjected capillary electrophoresis by using Bare Fused-Silica Capillary (50 μm ID, 375 μm OD, 50 cm length, Beckmann Coulter Inc.) attached to capillary electrophoresis system (P/ACE™ system MDQ, Beckmann Coulter Inc.). In doing this, 10 mM Tris buffer (pH 4.5) containing 10 mM of sodium chloride, 500 mM of sodium acetate, 7 M of urea, and 2.5 mM of putrescine was used as an electrophoresis buffer, and the electrophoresis was performed at constant current of 24 μA for 50 minutes. Further the wave length at 214 nm was monitored by an UV detector to detect the recombinant human erythropoietin subjected to the electrophoresis.
The isoform showing the lowest isoelectric point among the isoforms showing different isoelectric points when detected by the capillary electrophoresis above was named as type I, and further the isoforms were named as type II and type III in ascending order of isoelectric point. The ratios of type I, type II, and type III to sum of all of detected isoforms were calculated, respectively. And the ratios were compared between the groups. The ratios of type I, type II, and type III in the recombinant human erythropoietin of the group 1 obtained by culturing the cells in the basic medium were about 0.7%, about 5%, and about 15%, respectively (FIG. 3).

[2] = tested on: CHO cells for expression of recombinant human FSH; experiment: Sialic acid content (HPLC peak area) of recombinant human FSH from cells cultured in supplemented medium; type: cell-based, Chinese hamster; settings: for relative value of sialic acid peak area of recombinant human FSH (basic medium = 100%): basic medium added with 8 mM N-acetyl-D-mannosamine and/or 3 mM uridine, 5 days at 37° C., FIG. 9
Experimental: as §1, with “obtain” for “obtain the”
The cell suspension was dispensed into culture vessels by 120 mL each to generate four groups and incubated for five days at 37° C. under 5% CO2. This incubation was conducted by using Bio Jr. 8 (100 mL×8 vessels culture device, AbleBiott Inc.), and pH of the medium was kept at 6.9 and the dissolved oxygen level (DO) was kept at 40% during the incubation. […]
50 μL of the concentrated solution of the purified recombinant human FSH of each of the groups was alkali-treated with 0.3M sodium hydroxide at 37° C. for 30 minutes, subsequently was acid-treated with 0.05M hydrochloric acid at 80° C. for 60 minutes to make glycans composing recombinant human FSH hydrolyzed to monosaccharides. Then, the solution were added with fluorescence reagent (a solution containing 9.6 mM of 1,2-diamino-4,5-methylene-dioxybenzene dihydrochloride, 24 mM of sodium hydrosulfite, and 1M of 2-mercaptoethanol), and heated at 50° C. for 150 minutes to fluorescently label the monosaccharides obtained by the hydrolysis. […] As a standard, sialic acid was concurrently treated with the same manner, and the standard of fluorescence-labeled sialic acid was obtained. The standard thus obtained was analyzed by HPLC using COSMOSIL 5C18-PAQ as reverse phase column, and the elution time of sialic acid, the time when the peak corresponding to sialic acid appeared, was measured. And each of the sample solutions was analyzed by HPLC and the area of peak corresponding to sialic acid was calculated. […]

In the case of `O=c1ccn([C@@H]2O[C@H](CO)[C@@H](O)[C@H]2O)c(=O)[nH]1` [uridine], the “ratio of type II isoform to sum of all detected isoforms of recombinant human erythropoietin” value [1] was “about 3.5%”, the “ratio of type III isoform to sum of all detected isoforms of recombinant human erythropoietin” value [1] was “about 13%” and the “ratio of type I isoform to sum of all detected isoforms of recombinant human erythropoietin” value [1] was “about 0.3%”. The “increase of average number of sialic acid molecules per molecule of recombinant human FSH versus basic medium” value ([2]; basic medium added with 3 mM uridine, or with 8 mM N-acetyl-D-mannosamine and 3 mM uridine) was “about 10%” and the “relative value of sialic acid peak area of recombinant human FSH (basic medium = 100%)” value [2] was “about 112%”.
With `CC(=O)N[C@@H]1C(O)O[C@H](CO)[C@@H](O)[C@@H]1O` (stereo partly drawn) [N-acetyl-D-mannosamine] the “ratio of type II isoform to sum of all detected isoforms of recombinant human erythropoietin” value [1] was “about 7%”, the “ratio of type III isoform to sum of all detected isoforms of recombinant human erythropoietin” value [1] was “about 20.7%” and the “ratio of type I isoform to sum of all detected isoforms of recombinant human erythropoietin” value [1] was “about 1.2%”. For the same molecule, the “relative value of sialic acid peak area of recombinant human FSH (basic medium = 100%)” value [2] was “about 100%”.
